Results as given in ChEMBL document CHEMBL1132765, “Synthesis and antibacterial activity of new carbapenems containing isoxazole moiety” (2000).
Values after ≈ are worked out from the molar mass of the structure shown. Blank lines part the entries; values can stand above or below the compound they belong to.

What was measured:
[1] = biological target: T1, Dipeptidase 1 (Sus scrofa) (UniProt P22412); assay: Relative t1/2 hydrolysis to meropenem by partially purified porcine renal DHP-1; type: functional
T1 sequence (whole entry): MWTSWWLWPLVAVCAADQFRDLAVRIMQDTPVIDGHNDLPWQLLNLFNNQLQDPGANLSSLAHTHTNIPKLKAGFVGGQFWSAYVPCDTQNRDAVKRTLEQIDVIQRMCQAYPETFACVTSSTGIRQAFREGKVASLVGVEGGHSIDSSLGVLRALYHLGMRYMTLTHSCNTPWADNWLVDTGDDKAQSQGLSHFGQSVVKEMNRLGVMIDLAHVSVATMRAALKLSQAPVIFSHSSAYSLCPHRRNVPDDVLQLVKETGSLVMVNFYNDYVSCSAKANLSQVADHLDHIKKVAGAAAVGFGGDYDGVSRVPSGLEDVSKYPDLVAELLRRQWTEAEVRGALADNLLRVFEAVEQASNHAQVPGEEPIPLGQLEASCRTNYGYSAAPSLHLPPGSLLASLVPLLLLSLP

[2] = test system: Enterobacter cloacae; assay: In vitro antibacterial activity against Enterobacter cloacae 1321E; type: functional
[3] = test system: Klebsiella aerogenes; assay: In vitro antibacterial activity against Klebsiella aerogenes 1522E; type: functional
[4] = test system: Pseudomonas aeruginosa; assay: In vitro antibacterial activity against Pseudomonas aeruginosa 9027; type: functional
[5] = test system: Salmonella typhimurium; assay: In vitro antibacterial activity against Salmonella Typhimurium; type: functional, Salmonella enterica subsp. enterica serovar Typhimurium
[6] = test system: Pseudomonas aeruginosa; assay: In vitro antibacterial activity against Pseudomonas aeruginosa 1592E; type: functional
[7] = test system: Pseudomonas aeruginosa; assay: In vitro antibacterial activity against Pseudomonas aeruginosa 1771M; type: functional
[8] = test system: Escherichia coli; assay: In vitro antibacterial activity against Escherichia coli 078; type: functional
[9] = test system: Streptococcus pyogenes; assay: In vitro antibacterial activity against Streptococcus pyogenes 308A; type: functional
[10] = test system: Escherichia coli; assay: In vitro antibacterial activity against Escherichia coli 1507E; type: functional
[11] = test system: Staphylococcus aureus; assay: In vitro antibacterial activity against Staphylococcus aureus SG511; type: functional
[12] = test system: Staphylococcus aureus; assay: In vitro antibacterial activity against Staphylococcus aureus 503; type: functional
[13] = test system: Staphylococcus aureus; assay: In vitro antibacterial activity against Staphylococcus aureus 285; type: functional
[14] = Enterobacter cloacae, read-out: MIC
[15] = Klebsiella aerogenes, read-out: MIC
[16] = Pseudomonas aeruginosa, read-out: MIC
[17] = Salmonella enterica, read-out: MIC
[18] = Escherichia coli, read-out: MIC
[19] = Streptococcus pyogenes, read-out: MIC
[20] = Staphylococcus aureus, read-out: MIC

Compound: C[C@@H](O)[C@H]1C(=O)N2C(C(=O)O)=C(S[C@@H]3CN[C@H](C4CC[N+](C)(CC(N)=O)O4)C3)[C@H](C)[C@H]12.[Cl-] (some centres undefined)
MIC [2, 14]: 0.049 µg/mL
MIC [3, 15]: 0.195 µg/mL
Relative t1/2 [1]: 1.66
MIC [4, 16]: 0.195 µg/mL
MIC [5, 17]: 0.195 µg/mL
MIC [6, 16]: 0.391 µg/mL
MIC [7, 16]: 0.195 µg/mL
MIC [8, 18]: 0.098 µg/mL
MIC [9, 19]: 0.007 µg/mL
MIC [10, 18]: 0.049 µg/mL
MIC [11, 20]: 0.049 µg/mL
MIC [12, 20]: 0.025 µg/mL
MIC [13, 20]: 0.098 µg/mL

Compound: C[C@@H](O)[C@H]1C(=O)N2C(C(=O)O)=C(S[C@@H]3CN[C@H](C4CC[N+](C)(C)O4)C3)[C@H](C)[C@H]12.[Cl-] (some centres undefined)
MIC [2, 14]: 0.098 µg/mL
MIC [3, 15]: 0.195 µg/mL
Relative t1/2 [1]: 1.5
MIC [4, 16]: 0.391 µg/mL
MIC [5, 17]: 0.195 µg/mL
MIC [6, 16]: 0.391 µg/mL
MIC [7, 16]: 0.195 µg/mL
MIC [8, 18]: 0.195 µg/mL
MIC [9, 19]: 0.013 µg/mL
MIC [10, 18]: 0.098 µg/mL
MIC [11, 20]: 0.098 µg/mL
MIC [12, 20]: 0.049 µg/mL
MIC [13, 20]: 0.195 µg/mL

Compound: C[C@@H](O)[C@H]1C(=O)N2C(C(=O)O)=C(S[C@@H]3CN[C@H](C(=O)N(C)C)C3)[C@H](C)[C@H]12 [MEROPENEM]
MIC [2, 14]: 0.025 µg/mL (≈ 0.0652 µM)
MIC [3, 15]: 0.049 µg/mL (≈ 0.128 µM)
Relative t1/2 [1]: 1
MIC [4, 16]: 0.195 µg/mL (≈ 0.509 µM)
MIC [5, 17]: 0.049 µg/mL (≈ 0.128 µM)
MIC [6, 16]: 0.195 µg/mL (≈ 0.509 µM)
MIC [7, 16]: 0.049 µg/mL (≈ 0.128 µM)
MIC [8, 18]: 0.025 µg/mL (≈ 0.0652 µM)
MIC [9, 19]: 0.013 µg/mL (≈ 0.0339 µM)
MIC [10, 18]: 0.025 µg/mL (≈ 0.0652 µM)
MIC [11, 20]: 0.195 µg/mL (≈ 0.509 µM)
MIC [12, 20]: 0.098 µg/mL (≈ 0.256 µM)
MIC [13, 20]: 0.195 µg/mL (≈ 0.509 µM)

Compound: C[C@@H](O)[C@H]1C(=O)N2C(C(=O)O)=C(S[C@@H]3CN[C@H](C4CCN(C)O4)C3)[C@H](C)[C@H]12 (some centres undefined)
MIC [2, 14]: 0.025 µg/mL (≈ 0.0629 µM)
MIC [3, 15]: 0.098 µg/mL (≈ 0.247 µM)
Relative t1/2 [1]: 1.27
MIC [4, 16]: 0.391 µg/mL (≈ 0.984 µM)
MIC [5, 17]: 0.098 µg/mL (≈ 0.247 µM)
MIC [6, 16]: 0.391 µg/mL (≈ 0.984 µM)
MIC [7, 16]: 0.195 µg/mL (≈ 0.491 µM)
MIC [8, 18]: 0.098 µg/mL (≈ 0.247 µM)
MIC [9, 19]: 0.007 µg/mL (≈ 0.0176 µM)
MIC [10, 18]: 0.049 µg/mL (≈ 0.123 µM)
MIC [11, 20]: 0.098 µg/mL (≈ 0.247 µM)
MIC [12, 20]: 0.049 µg/mL (≈ 0.123 µM)
MIC [13, 20]: 0.098 µg/mL (≈ 0.247 µM)

Compound: CCOC(=O)C1=NOC([C@@H]2C[C@H](SC3=C(C(=O)O)N4C(=O)[C@H]([C@@H](C)O)[C@H]4[C@H]3C)CN2)C1 (some centres undefined)
MIC [2, 14]: 0.025 µg/mL (≈ 0.0551 µM)
MIC [3, 15]: 0.049 µg/mL (≈ 0.108 µM)
Relative t1/2 [1]: 0.94
MIC [4, 16]: 0.781 µg/mL (≈ 1.72 µM)
MIC [5, 17]: 0.049 µg/mL (≈ 0.108 µM)
MIC [6, 16]: 0.781 µg/mL (≈ 1.72 µM)
MIC [7, 16]: 0.391 µg/mL (≈ 0.862 µM)
MIC [8, 18]: 0.013 µg/mL (≈ 0.0287 µM)
MIC [9, 19]: 0.025 µg/mL (≈ 0.0551 µM)
MIC [10, 18]: 0.013 µg/mL (≈ 0.0287 µM)
MIC [11, 20]: 0.195 µg/mL (≈ 0.43 µM)
MIC [12, 20]: 0.098 µg/mL (≈ 0.216 µM)
MIC [13, 20]: 0.391 µg/mL (≈ 0.862 µM)

Compound: C[C@@H](O)[C@H]1C(=O)N2C(C(=O)O)=C(S[C@@H]3CN[C@H](c4cc(CO)on4)C3)[C@H](C)[C@H]12
MIC [2, 14]: 0.025 µg/mL (≈ 0.0611 µM)
MIC [3, 15]: 0.049 µg/mL (≈ 0.12 µM)
Relative t1/2 [1]: 0.8
MIC [4]: 1.56 µg/mL (≈ 3.82 µM)
MIC [5, 17]: 0.049 µg/mL (≈ 0.12 µM)
MIC [6, 16]: 1.56 µg/mL (≈ 3.82 µM)
MIC [7, 16]: 0.391 µg/mL (≈ 0.955 µM)
MIC [8, 18]: 0.025 µg/mL (≈ 0.0611 µM)
MIC [9, 19]: 0.013 µg/mL (≈ 0.0317 µM)
MIC [10, 18]: 0.025 µg/mL (≈ 0.0611 µM)
MIC [11, 20]: 0.098 µg/mL (≈ 0.239 µM)
MIC [12, 20]: 0.049 µg/mL (≈ 0.12 µM)
MIC [13, 20]: 0.098 µg/mL (≈ 0.239 µM)

Results, then the compound that gave them:

Relative t1/2 [1]: 0.78
Compound: C[C@@H](O)[C@H]1C(=O)N2C(C(=O)O)=C(S[C@@H]3CN[C@H](C4CC(CO)=NO4)C3)[C@H](C)[C@H]12 (stereo in doubt; form 2) [listing 1 of 2 here]

MIC [2, 14]: 0.049 µg/mL (≈ 0.119 µM)
MIC [3, 15]: 0.098 µg/mL (≈ 0.238 µM)
MIC [4, 16]: 0.391 µg/mL (≈ 0.95 µM)
MIC [5, 17]: 0.098 µg/mL (≈ 0.238 µM)
MIC [6, 16]: 0.391 µg/mL (≈ 0.95 µM)
MIC [7, 16]: 0.098 µg/mL (≈ 0.238 µM)
MIC [8, 18]: 0.049 µg/mL (≈ 0.119 µM)
MIC [9, 19]: 0.013 µg/mL (≈ 0.0316 µM)
MIC [10, 18]: 0.049 µg/mL (≈ 0.119 µM)
MIC [11, 20]: 0.098 µg/mL (≈ 0.238 µM)
MIC [12, 20]: 0.049 µg/mL (≈ 0.119 µM)
MIC [13, 20]: 0.098 µg/mL (≈ 0.238 µM)
Compound: C[C@@H](O)[C@H]1C(=O)N2C(C(=O)O)=C(S[C@@H]3CN[C@H](C4CC(CO)=NO4)C3)[C@H](C)[C@H]12 (stereo in doubt; form 1) [listing 1 of 2 here]

Relative t1/2 [1]: 1.09
Compound: C[C@@H](O)[C@H]1C(=O)N2C(C(=O)O)=C(S[C@@H]3CN[C@H](C4CC(CO)=NO4)C3)[C@H](C)[C@H]12 (stereo in doubt; form 1) [listing 2 of 2 here]

MIC [2]: 0.025 µg/mL (≈ 0.0608 µM)
MIC [3]: 0.049 µg/mL (≈ 0.119 µM)
MIC [4]: 0.391 µg/mL (≈ 0.95 µM)
MIC [5]: 0.049 µg/mL (≈ 0.119 µM)
MIC [6]: 0.391 µg/mL (≈ 0.95 µM)
MIC [7]: 0.195 µg/mL (≈ 0.474 µM)
MIC [8]: 0.025 µg/mL (≈ 0.0608 µM)
MIC [9]: 0.013 µg/mL (≈ 0.0316 µM)
MIC [10]: 0.025 µg/mL (≈ 0.0608 µM)
MIC [11]: 0.098 µg/mL (≈ 0.238 µM)
MIC [12]: 0.049 µg/mL (≈ 0.119 µM)
MIC [13]: 0.098 µg/mL (≈ 0.238 µM)
Compound: C[C@@H](O)[C@H]1C(=O)N2C(C(=O)O)=C(S[C@@H]3CN[C@H](C4CC(CO)=NO4)C3)[C@H](C)[C@H]12 (stereo in doubt; form 2) [listing 2 of 2 here]
